A short description of this data set: Pharmacokinetic study in dogs, oral dosing of tablet compositions with SNAC. Format: in vivo, Beagle dogs. As to conditions: male, beagle, dog, in vivo, po. The essentials: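 The tablets held 3-4 mg compound plus 100-300 mg SNAC and were given to fasted male beagles (6-8 per group); non-compartmental PK per animal.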

Starred links: 1 amine or outer side, 2 acyl side, 3 side chain; linkers in the order of their positions; H or OH if unused. Non-standard residues stand in square brackets, D forms with d. Residues, ends and D or L forms follow the SMILES beside them. Groups on a side chain read outwards from the residue. *: point of attachment. C18 diacid = O=C(O)CCCCCCCCCCCCCCCCC(=O)*; γGlu = O=C(O)[C@H](CCC(=O)[*:2])N[*:1]; εLys = N[C@@H](CCCCN[*:1])C(=O)[*:2]; Aib = CC(C)(N)C(=O)O

By Tmax is commonly meant the time at which the peak concentration occurs. The term half-life denotes how long it takes for the measured level to halve. Low values mean rapid decline, high ones slow decline. In the case of `CC[C@H](C)[C@H](NC(=O)[C@H](Cc1ccccc1)NC(=O)[C@H](CCC(=O)O)NC(=O)[C@H](CCCNC(=N)N)NC(=O)[C@H](C)NC(=O)[C@H](C)NC(=O)[C@H](CCC(N)=O)NC(=O)[C@H](CCCCNC(=O)[C@@H](N)CCCCNC(=O)[C@@H](N)CCCCNC(=O)CC[C@H](NC(=O)CCCCCCCCCCCCCCCCC(=O)O)C(=O)O)NC(=O)[C@H](CCC(=O)O)NC(=O)[C@H](CC(C)C)NC(=O)[C@H](CC(C)C)NC(=O)[C@@H](NC(=O)[C@H](CO)NC(=O)[C@H](Cc1ccc(O)cc1)NC(=O)[C@H](CC(=O)O)NC(=O)[C@H](CO)NC(=O)[C@@H](NC(=O)[C@H](Cc1ccccc1)NC(=O)[C@@H](NC(=O)CNC(=O)[C@H](CCC(=O)O)NC(=O)C(C)(C)NC(=O)[C@@H](N)Cc1ccc(O)cc1)[C@@H](C)O)[C@@H](C)O)[C@@H](C)CC)C(=O)N[C@@H](CC(N)=O)C(=O)N[C@@H](Cc1c[nH]c2ccccc12)C(=O)N[C@@H](CC(C)C)C(=O)N[C@@H](CC(C)C)C(=O)N[C@@H](C)C(=O)NCC(=O)NCC(=O)N1CCC[C@H]1C(=O)N[C@@H](CO)C(=O)N[C@@H](CO)C(=O)NCC(=O)N[C@@H](C)C(=O)N1CCC[C@H]1C(=O)N1CCC[C@H]1C(=O)N1CCC[C@H]1C(=O)N[C@@H](CO)C(=O)O` [Compound No. 15] (H-Y[Aib]EGTFTSDYSILLEK([εLys-εLys-γGlu-C18 diacid])QAAREFINWLLAGGPSSGAPPPS-OH), under “Tmax”, the time to peak (Tmax) stood at 1.5 h. The half-life (t1/2) was 2.46 days.
